Data reported in patent US12186294B2, “Modulators of prostate-specific g-protein receptor (PSGR/OR51E2) and methods of using same” (Duke University, priority 2016, dated 2025).
Square brackets hold non-standard residues; d marks the D form. Peptide text beside a SMILES is read from it.

How the values were obtained:
OR51E2 = molecular target: T1, OR51E2 (Homo sapiens, UniProt Q9H255); experiment: in vitro luciferase assay (CRE-Luc) in Hana3A cells transfected with OR51E2; assay type: cell-based; conditions: for EC50: OR51E2 agonist, Hana3A cells, luciferase, read-out: EC50 (potency); for Efficacy: compared to the 1 mM PA response
T1 construct: expressed in transfected cells; host or cells: Hana3A cells (modified human embryonic kidney cells)
T1 sequence (Q9H255 1-320): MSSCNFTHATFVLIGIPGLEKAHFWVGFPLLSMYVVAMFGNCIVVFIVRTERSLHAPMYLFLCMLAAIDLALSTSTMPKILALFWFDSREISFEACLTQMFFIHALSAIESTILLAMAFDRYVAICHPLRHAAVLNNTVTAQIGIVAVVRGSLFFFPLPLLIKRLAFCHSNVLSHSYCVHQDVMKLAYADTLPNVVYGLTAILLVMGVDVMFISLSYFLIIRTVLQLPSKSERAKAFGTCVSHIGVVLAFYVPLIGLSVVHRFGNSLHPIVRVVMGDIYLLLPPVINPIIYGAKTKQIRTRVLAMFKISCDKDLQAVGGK
Procedure: Hana3A cells (modified human embryonic kidney cells) were cultured in 96 well plates in M10PSF medium. LNCaP human prostate cancer cells were cultured in both RPMI medium and androgen deprived RPMI medium. Hana3A cells were transfected with CRE-Luc (CREB-dependent luciferase (Firefly)) and SV40-RL promoter plasmids, and pCI and OR51E2 plasmids. […] Upon ligand binding, an increase in cAMP drives the expression of Firefly luciferase. Increase in luminescence signal was measured with a luminometer and Optima Data Analysis software. The luminescent signal is directly proportional to receptor activation. A general schematic of a luciferase assay is shown in FIG. 5 and a schematic of the assay used in this Example is shown in FIG. 6.
The top 56 compounds from the VLS list were tested using the in vitro expression and luciferase assay. […] The biologically relevant concentrations of each metabolite were individually determined based on available data in the literature. If no data were available, compounds were tested in the range of 1 nM-100 μM. Responses were normalized to the response with 1 mM propionic acid (PA), a previously identified agonist, and also to a response with no-control.

LNCaP cells [1] = experiment: untargeted GC/MS metabolomics signatures of LNCaP cells treated with OR51E2 ligand; assay type: cell-based, human; conditions: 72 hours, 100 nM 19-OH AD, 250 μM AFMK, 1 mM PA
Procedure: Metabolomics signatures were assessed using untargeted gas chromatography/mass spectrometry (GC/MS) to analyze LNCaP cells treated with an OR51E2 ligand for 3 days. There were six biological replicates for each treatment and the results were analyzed using MetaboAnalyst software. The same analysis will also be conducted using RWPE-2 cells.
GC/MS analysis detected greater than 250 features, and 115 of them were annotated. In FIG. 24A-24F, the top 15 metabolites are presented showing the most significant differences in cells treated with agonists when compared to control cells.

LNCaP cells [2] = experiment: RT-PCR assay of NED marker and OR51E2 transcript levels in LNCaP cells; assay type: cell-based, human
Procedure: To assess the differentiation status of LNCaP cells following treatment with an OR51E2 ligand, cells were exposed to the ligands for three days. Biological markers of NED were analyzed using an RT-PCR assay. The following markers were tested: neuron specific enolase (NSE) and α-methylacyl-CoA racemase (AMACR), an enzyme essential for isomerization of branched-chained fatty acids that is present at low levels in healthy prostate cells and increased in PCa and in NE-like cells. Furthermore, changes in the expression levels of OR51E2 and androgen receptor (AR) were determined. This experiment will also be conducted using RWPE-2 cells.
For example, 19-OH AD agonist treatment of LNCaP cells increased OR51E2 transcript levels. […] Further studies using siRNA gene knockdown assays, will determine whether activated/overexpressed OR51E2 is involved in NEtD.

LNCaP cells [3] = experiment: cell viability/proliferation assay of LNCaP cells (CellTiter-Glo); assay type: cell-based, human; conditions: 10 uM, 7 day incubation, vs untreated control
Procedure: The NEtD status was assessed through analysis of viability and proliferation of LNCap cells using use CellTiter-Glo Luminescent cell viability assay (Promega). […] Viability and proliferation assays will also be conducted with OR51E2 ligands in RWPE-2 cells.
Furthermore, a cell viability/proliferation assay of prostate cancer LNCaP cells was performed using 13-cis RA during a 7 day incubation period.

LNCaP cells [4] = conditions: cited from earlier work
[5] = 12 days incubation with agonist, vs control

## O=C(O)C(=O)CO [Hydroxypyruvic acid]
OR51E2
  EC50: 420 nM
  Efficacy: 1.100

## COc1ccc(NC=O)c(C(=O)CCNC(C)=O)c1 [AFMK, N-acetyl-N-formyl-5-metoxykynurenamine]
OR51E2
  EC50: 12000 nM
  Efficacy: 1.483
LNCaP cells [1]
  metabolite differences relative to controls (GC/MS): significant differences relative to controls

## CCC(=O)O [PA, propionic acid]
LNCaP cells [2]; [5]
  AMACR transcript levels: increased
  NSE transcript levels: increased
LNCaP cells [1]
  metabolite differences relative to controls (GC/MS): significant differences relative to controls

## C[C@@H](N)C(=O)N[C@H](C)C(=O)O [D-Alanyl-d-alanine] (H-[dA]-[dA]-OH)
OR51E2
  EC50: 14000 nM

## C[C@]12CC[C@@H]3c4ccc(O)cc4CC[C@H]3[C@@H]1C[C@@H](O)[C@@H]2O [Estriol]
OR51E2
  EC50: 53000 nM

## NC(N)=O [Urea]
OR51E2
  EC50: 23 nM
  Efficacy: 0.580

## NCC(=O)NCC(=O)O [Glycylglycine] (H-Gly-Gly-OH)
OR51E2
  EC50: 11000 nM

## CC(=O)N[C@@H](CCC(=O)O)C(=O)O [N-Acetylglutamic acid]
OR51E2
  EC50: 0.23 nM

## C[C@]12CCC(=O)CC1CC[C@@H]1[C@@H]2CC[C@]2(C)C(=O)CC[C@@H]12 (stereo partly drawn) [Androstanedione]
OR51E2
  EC50: 0.79 nM
  Efficacy: 0.888

## NCC(=O)O [Glycine]
OR51E2
  Efficacy: 0.613

## CC1=C(/C=C/C(C)=C/C=C/C(C)=C\C(=O)O)C(C)(C)CCC1 [13-cis RA, 13-cis retinoic acid]
OR51E2; responses normalized to 1 mM PA, read-out: IC50 (OR51E2 antagonist)
  IC50: 160 nM
LNCaP cells [2]; 10 μM, 3 days, vs control cells
  OR51E2 transcript levels: significantly decreased
LNCaP cells [3]
  LNCaP growth: effectively impeded
LNCaP cells [4]; Dahiya et al. (1994)
  LNCaP cell growth and tumorigenic potential: inhibits cell growth and decreases tumorigenic potential

## CCCCCCCCCCCCCCCC(=O)O [Palmitic acid]
OR51E2
  EC50: 9.8 nM
  Efficacy: 0.927

## CC(=O)/C=C/C1=C(C)CCCC1(C)C [beta ionone, beta-ionone]
LNCaP cells [4]; Neuhaus et al. (2009), OR51E2/PSGR activation
  proliferation of LNCaP cells: decreased

## C[C@]12CC[C@H]3[C@@H](CCC4=CC(=O)CC[C@@]43CO)[C@@H]1CCC2=O [19-OH AD, 19-hydroxyandrost-4-ene-3,17-dione]
OR51E2
  EC50: 0.15 nM
  Efficacy: 0.890
LNCaP cells [2]; [5]
  OR51E2 transcript levels: increased
LNCaP cells [1]
  metabolite differences relative to controls (GC/MS): significant differences relative to controls

## O=C(O)[C@@H](O)CO [L-Glyceric acid]
OR51E2
  EC50: 1.9 nM

## O=C1CCCN1 [2-Pyrrolidinone]
OR51E2
  EC50: 1.9 nM
  Efficacy: 0.525

## C[C@]12CC[C@H]3[C@@H](CCC4=CC(=O)CC[C@@]43C)[C@@H]1CC[C@H]2O [Epitestosterone]
OR51E2
  EC50: 0.69 nM
  Efficacy: 0.477

## Nc1ncnc2c1ncn2C1OC(CO)C2OP(=O)(O)OC21 (stereo not drawn) [Adenosine 2′,3′-cyclic phosphate]
OR51E2
  EC50: 26 nM
  Efficacy: 1.025

## OC[C@H]1O[C@H](O[C@H]2C(O)O[C@H](CO)[C@@H](O)[C@@H]2O)[C@H](O)[C@@H](O)[C@@H]1O (stereo partly drawn) [Kojibiose]
OR51E2
  EC50: 1000 nM
  Efficacy: 0.790

## Cc1c(O)cc2c(c1C)OC(C)(CCC(=O)O)CC2 (stereo not drawn) [Gamma-CEHC]
OR51E2
  EC50: 6.4 nM
  Efficacy: 1.286
